For orientation: inhibition means the percentage by which the read-out fell short of the control.

58 compounds from EP1724268A1, “COMPOUND HAVING TGF-BETA INHIBITORY ACTIVITY AND PHARMACEUTICAL COMPOSITION CONTAINING SAME” (KIRIN BEER KABUSHIKI KAISHA, priority 2004, dated 2005) can be followed below.

The assay deals with TGFβ signal. Put plainly: TGFβ signal inhibitory activity, (SBE)4-Luc reporter in A549 cells (Test Examples 1A and 1B). As to conditions: Homo sapiens. The class given is cell-based, human. The procedure, abridged: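 Compounds at 3 µM and 10 µM (some 1 µM) were added with 2 ng/ml TGFβ-1 to A549 cells stably expressing an SBE-driven luciferase, then cultured 4 hr. Chemiluminescent luciferase signal gave % inhibition versus TGFβ-alone and no-TGFβ controls.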

[1] abbreviates: A549, 3 µM, compounds of Reference Examples (Test Example 1B), read-out: TGFβ inhibition rate, %.
Where [2] appears, read: A549, 10 µM, compounds of Reference Examples (Test Example 1B), read-out: TGFβ inhibition rate, %.
Where [3] appears, read: A549, test compound 3 µM, Reference Examples, Table 1B, read-out: TGFβ inhibition rate, %.
[4] abbreviates: A549, test compound 10 µM, Reference Examples, Table 1B, read-out: TGFβ inhibition rate, %.

Where two headings read alike, the source gives them in different places.

Take `COc1cc2c(Oc3cc(C)c(C)nc3-c3ccccn3)ccnc2cc1OCCCCO` [Compound r445]: the inhibition at 3 µM under setting [1] worked out at 99%. `COc1cc2c(Oc3cc(C)c(C)nc3-c3cccc(C)n3)ccnc2cc1OCC1CO1` (stereo not drawn) [Compound r446]: the inhibition at 3 µM under setting [1] came to 35%. For the same compound, under setting [2], the inhibition at 10 µM came out at 89%.

Regarding `COc1cc2c(Oc3cc(C)c(C)nc3-c3cccc(C)n3)ccnc2cc1OCCCO` [Compound r447], under setting [1], the inhibition at 3 µM amounted to 94%. Under setting [2], the inhibition at 10 µM stood at 100%. As to `COc1cc2c(Oc3cc(C)c(C)nc3-c3cccc(C)n3)ccnc2cc1OCC(CO)CO` [Compound r448], the inhibition at 3 µM under setting [1] was found to be 70%. Besides, the inhibition at 10 µM under setting [2] came to 97%. In the case of `COc1cc2c(Oc3cc(C)c(C)nc3-c3cccc(C)n3)ccnc2cc1OCC(O)CO` (stereo not drawn) [Compound r449], the inhibition at 3 µM under setting [1] is 74%. Moreover, the inhibition at 10 µM under setting [2] is 98%. As to `COc1cc2c(Oc3cc(C)c(C)nc3-c3cccc(C)n3)ccnc2cc1OCCO` [Compound r450], under setting [1], the inhibition at 3 µM was found to be 94%. Besides, under setting [2], the inhibition at 10 µM worked out at 100%. On the same counts, the results for `COc1cc2c(Oc3cc4cccnc4nc3C)ccnc2cc1OCCN1CCC(O)CC1` [Compound r451] are 99% and 100%.

As to `COc1cc2c(Oc3cc(C)c(C)nc3-c3ccc(C)cn3)ccnc2cc1OCc1ccccc1` [Compound r452], the inhibition at 3 µM under setting [1] came out at 67%. The inhibition at 10 µM under setting [2] amounted to 99%. As to `COc1cc2c(Oc3cc(C)c(C)nc3-c3ccc(C)cn3)ccnc2cc1O` [Compound r453], the inhibition at 3 µM under setting [1] is 72%. Besides, the inhibition at 10 µM under setting [2] worked out at 98%. Take `COc1cc2c(Oc3cc(C)c(C)nc3-c3nc(C)c(C)s3)ccnc2cc1OCc1ccccc1` [Compound r454]: the inhibition at 3 µM under setting [1] worked out at 41%. For the same compound, under setting [2], the inhibition at 10 µM turned out to be 75%. Regarding `COc1cc2c(Oc3cc(C)c(C)nc3-c3nc(C)c(C)s3)ccnc2cc1O` [Compound r455], under setting [1], the inhibition at 3 µM was 76%. Further, under setting [2], the inhibition at 10 µM was determined as 99%.

Consider `COc1cc2c(Oc3cc4ccccc4nc3C(C)=O)ccnc2cc1OCCCO` [Compound r456], for which the inhibition at 3 µM under setting [1] came to 99%. Further, the inhibition at 10 µM under setting [2] came to 100%. For the compound `COc1cc2c(Oc3cc(C)c(C)nc3-c3ccc(C)cn3)ccnc2cc1OCC1CO1` (stereo not drawn) [Compound r457], the inhibition at 3 µM under setting [1] is 97%. The inhibition at 10 µM under setting [2] came out at 100%.

In the case of `COc1cc2c(Oc3cc(C)c(C)nc3-c3nc(C)c(C)s3)ccnc2cc1OCC1CO1` (stereo not drawn) [Compound r458], under setting [1], the inhibition at 3 µM was 94%. In addition, the inhibition at 10 µM under setting [2] came to 100%. As to `COc1cc2c(Oc3cc(C)c(C)nc3-c3ccc(C)cn3)ccnc2cc1OCCO` [Compound r459], the inhibition at 3 µM under setting [1] worked out at 98%. On the same count and under the same terms, as for `COc1cc2c(Oc3cc(C)c(C)nc3-c3ccc(C)cn3)ccnc2cc1OCCCO` [Compound r460], the figure is 97%. Regarding `COc1cc2c(Oc3cc(C)c(C)nc3-c3nc(C)c(C)s3)ccnc2cc1OCCO` [Compound r461], the inhibition at 3 µM under setting [1] turned out to be 82%.

Turning to `COc1cc2c(Oc3cc(C)c(C)nc3-c3nc(C)c(C)s3)ccnc2cc1OCCCO` [Compound r462], under setting [1], the inhibition at 3 µM worked out at 99%. For `COc1cc2c(Oc3cc(C)c(C)nc3-c3ccc(C)cn3)ccnc2cc1OCC(O)CO` (stereo not drawn) [Compound r463], the inhibition at 3 µM under setting [1] came out at 77%. In addition, the inhibition at 10 µM under setting [2] worked out at 99%.

Regarding `COc1cc2c(Oc3cc(C)c(C)nc3-c3nc(C)c(C)s3)ccnc2cc1OCC(O)CO` (stereo not drawn) [Compound r464], the inhibition at 3 µM under setting [1] was 97%. Moreover, the inhibition at 10 µM under setting [2] turned out to be 100%. `COc1cc2c(Oc3cc(C)c(C)nc3-c3cccc(C)n3)ccnc2cc1OCCCl` [Compound r465]: the inhibition at 3 µM under setting [1] stood at 98%. Moreover, the inhibition at 10 µM under setting [2] stood at 100%. Take `COc1cc2c(Oc3cc(C)c(C)nc3-c3ccc(C)cn3)ccnc2cc1OCCCl` [Compound r466]: the inhibition at 3 µM under setting [1] is 99%. The inhibition at 10 µM under setting [2] was found to be 100%. As for `COc1cc2c(Oc3cc4ccccc4nc3C(C)=O)ccnc2cc1OCCN1CCCCC1` [Compound r467], the inhibition at 3 µM under setting [1] came out at 100%.

Regarding `COc1cc2c(Oc3cc(C)c(C)nc3-c3cccc(C)n3)ccnc2cc1OCCNCCO` [Compound r468], under setting [1], the inhibition at 3 µM amounted to 99%. As for `COc1cc2nccc(Oc3ccc(C)cc3C)c2cc1OC` [r5], the inhibition at 3 µM under setting [3] worked out at 13%. The inhibition at 10 µM under setting [4] turned out to be 56%. Turning to `CCOC(=O)/C(C)=C/c1cc(OC)ccc1Oc1ccnc2cc(OC)c(OC)cc12` [r8], under setting [3], the inhibition at 3 µM is 10%. In addition, the inhibition at 10 µM under setting [4] is 59%.

With `CCCCC(O)c1cc(C)ccc1Oc1ccnc2cc(OC)c(OC)cc12` (stereo not drawn) [r10], the inhibition at 3 µM under setting [3] was 38%. Under setting [4], the inhibition at 10 µM came to 87%.

For `COc1cc2nccc(Oc3ccc(C)cc3-c3ccno3)c2cc1OC` [r12], under setting [3], the inhibition at 3 µM came out at 21%. Moreover, under setting [4], the inhibition at 10 µM worked out at 89%. In the case of `COc1cc2nccc(Oc3ccc(C)cc3[N+](=O)[O-])c2cc1OC` [r13], the inhibition at 3 µM under setting [3] amounted to 28%. Also, the inhibition at 10 µM under setting [4] is 78%.

For the compound `COc1cc2nccc(Oc3ccc(C)c(C)c3)c2cc1OC` [r15], the inhibition at 3 µM under setting [3] was 41%. Under setting [4], the inhibition at 10 µM stood at 84%.

On to `COc1cc2nccc(Oc3ccc4cc(Br)ccc4c3)c2cc1OC` [r18], for which the inhibition at 3 µM under setting [3] was found to be 15%. For the same compound, the inhibition at 10 µM under setting [4] stood at 69%. Turning to `COc1cc2nccc(Oc3ccc4ncccc4c3)c2cc1OC` [r24], the inhibition at 3 µM under setting [3] amounted to 66%. In addition, under setting [4], the inhibition at 10 µM worked out at 91%.

As to `COc1ccc(C(C)=O)c(Oc2ccnc3cc(OC)c(OC)cc23)c1` [r31], the inhibition at 3 µM under setting [3] amounted to 49%. For the same compound, the inhibition at 10 µM under setting [4] came to 98%.

As to `COc1cc2nccc(Oc3ccc(F)cc3C(C)=O)c2cc1OC` [r33], under setting [3], the inhibition at 3 µM was 27%. The inhibition at 10 µM under setting [4] was 94%. For the compound `COc1cc2nccc(Oc3ccc(Br)cc3C(C)=O)c2cc1OC` [r34], the inhibition at 3 µM under setting [3] is 0%. Further, under setting [4], the inhibition at 10 µM came out at 78%. For the compound `COc1cc(OC)c(C(C)=O)c(Oc2ccnc3cc(OC)c(OC)cc23)c1` [r40], the inhibition at 3 µM under setting [3] amounted to 12%. Moreover, the inhibition at 10 µM under setting [4] amounted to 83%. `COc1cc2nccc(Oc3ccc4ccccc4c3C(C)=O)c2cc1OC` [r42]: the inhibition at 3 µM under setting [3] amounted to 90%. Besides, under setting [4], the inhibition at 10 µM turned out to be 93%.

Consider `CCC(=O)c1cccc(F)c1Oc1ccnc2cc(OC)c(OC)cc12` [r43], for which the inhibition at 3 µM under setting [3] came out at 0%. Also, the inhibition at 10 µM under setting [4] was 66%. On the same counts, the results for `CCC(=O)c1ccc(OC)cc1Oc1ccnc2cc(OC)c(OC)cc12` [r44] are 97% and 100%. On the same counts, the results for `CCC(=O)c1cc(Cl)ccc1Oc1ccnc2cc(OC)c(OC)cc12` [r46] are 70% and 100%. As to `COc1cc2nccc(Oc3ccccc3C(=O)/C=C/c3ccccc3)c2cc1OC` [r57], the inhibition at 3 µM under setting [3] stood at 10%. The inhibition at 10 µM under setting [4] came to 55%. For `COc1cc2nccc(Oc3ccc(C)cc3C(=O)C3CCCC3)c2cc1OC` [r58] the same measures were 90% and 100%.

With `COc1cc2nccc(Oc3ccc(C)cc3C(=O)c3ccccc3)c2cc1OC` [r72], the inhibition at 3 µM (A549, read-out: TGFβ inhibition rate, %) was determined as 98%.

Regarding `COc1cc2nccc(Oc3ccc(C)cc3C(=O)c3ccc(C(C)(C)C)cc3)c2cc1OC` [r73], under setting [3], the inhibition at 3 µM is 24%. Besides, the inhibition at 10 µM under setting [4] worked out at 81%.

As for `COc1ccc(Oc2ccnc3cc(OC)c(OC)cc23)c(C(=O)c2ccccc2)c1` [r74], under setting [3], the inhibition at 3 µM worked out at 27%. The inhibition at 10 µM under setting [4] is 84%. As to `COc1cc2nccc(Oc3cc(C)c(Cl)cc3C(=O)c3ccccc3)c2cc1OC` [r75], under setting [3], the inhibition at 3 µM worked out at 97%. The inhibition at 10 µM under setting [4] was found to be 100%. Turning to `COc1cc2nccc(Oc3cccc(C(=O)c4ccccc4)c3)c2cc1OC` [r77], under setting [3], the inhibition at 3 µM was 0%. For the same compound, the inhibition at 10 µM under setting [4] was determined as 46%. `COc1cc2nccc(Oc3ccc(C(=O)c4cccc(C)c4)cc3)c2cc1OC` [r78]: under setting [3], the inhibition at 3 µM worked out at 0%. For the same compound, under setting [4], the inhibition at 10 µM was 57%. Consider `COc1cc2nccc(Oc3ccccc3C(=O)OCc3ccccc3)c2cc1OC` [r103], for which the inhibition at 3 µM under setting [3] stood at 20%. Also, the inhibition at 10 µM under setting [4] stood at 84%.

Regarding `COc1cc2nccc(Oc3ccccc3C(=O)Nc3ccccc3)c2cc1OC` [r104], the inhibition at 3 µM under setting [3] turned out to be 0%. Under setting [4], the inhibition at 10 µM turned out to be 58%.

Consider `COc1cc2nccc(Oc3ccc(C)cc3C(=O)N3CCCCC3)c2cc1OC` [r109], for which the inhibition at 3 µM under setting [3] was 5%. Further, the inhibition at 10 µM under setting [4] turned out to be 66%.

For the compound `COc1cc2nccc(Oc3cc4ccccc4cc3C(=O)Nc3cccc4ccccc34)c2cc1OC` [r114], under setting [3], the inhibition at 3 µM turned out to be 0%. For the same compound, the inhibition at 10 µM under setting [4] was determined as 96%. Take `COc1cc2nccc(Oc3ccc(C)nc3I)c2cc1OC` [r116]: the inhibition at 3 µM under setting [3] was determined as 99%. The inhibition at 10 µM under setting [4] stood at 100%.

As for `COc1ccc(Oc2ccnc3cc(OCCCl)c(OC)cc23)c(C(C)=O)c1` [r119], the inhibition at 3 µM under setting [3] turned out to be 96%. The inhibition at 10 µM under setting [4] came out at 97%. Turning to `COc1ccc(Oc2ccnc3cc(OCCN4CCOCC4)c(OC)cc23)c(C(C)=O)c1` [r120], the inhibition at 3 µM under setting [3] turned out to be 94%. The inhibition at 10 µM under setting [4] stood at 100%. As for `COc1ccc(Oc2ccnc3cc(OCCCN4CCOCC4)c(OC)cc23)c(C(C)=O)c1` [r122], the inhibition at 3 µM under setting [3] was found to be 100%. Besides, the inhibition at 10 µM under setting [4] came to 100%.

For `COc1cc2c(Oc3ccc(C)cc3C(=O)c3ccccc3)ccnc2cc1OCCCl` [r123], the inhibition at 3 µM under setting [3] amounted to 98%. The inhibition at 10 µM under setting [4] is 100%. Consider `COc1cc2c(Oc3ccc(C)cc3C(=O)c3ccccc3)ccnc2cc1OCCNCCO` [r124], for which, under setting [3], the inhibition at 3 µM stood at 99%. Further, under setting [4], the inhibition at 10 µM was 100%.
